Results as given in patent US11130762B2, “Azaaryl derivative, preparation method therefor, and application thereof for use in pharmacy” (Abbisko Therapeutics Co., Ltd., priority 2017, dated 2021).
Where two headings read alike, the source gives them in different places.

How the values were obtained:
[1] = system: M-NFS-60 mouse myeloid leukemia lymphocytes; assay: CSF-1R-related cell proliferation experiment (Cell Titer Glo), M-NFS-60 cells with M-CSF; type: cell-based; conditions: Lymphocyte, 72 h, 3 days, CTG, * = average of multiple tests
Procedure: C. CSF-1R-Related Cell Proliferation Experiment
Functional effects of compounds on cell proliferation were evaluated by using Cell Titer Glo (CTG) study in the present invention. M-NFS-60 mouse myeloid leukemia lymphocytes (cat. No. CCBJ078) from National Institutes For Food and Drug Control were cultured in the incubator under conditions of RPMI 1640 (Gibco, cat. No. 11875-119), 10% fetal bovine serum (Gibco, 10099-141), human 10 ng/mL M-CSF macrophage colony-stimulating factor (R&D, cat. No. MVN0915101), 37° C., and 5% CO2. Since ATP is an index for viable cell metabolism, CTG (Promega, #G7573) reagent is a homogeneous detection method for detecting the number of viable cells in the culture by quantifying ATP. Therefore, compound-mediated inhibition for cell proliferation/survival was evaluated by quantifying ATP content in cells, and the specific experimental process was as follows:
1. The cells were plated into a tissue-culture-medium-treated 96-well plate (Costar #3904) with 5,000 cells/well/80 μL fresh culture medium;
2. 24 hours later, 10 μL culture medium containing testing compound with 10-fold of final concentration was added to each well;
3. 10 μL of culture medium containing M-CSF with 10-fold of the final concentration was then added to each well;
4. dosage effect was evaluated by testing the 3-fold serial dilutions of the compound;
5. after the cells were incubated for 3 days at 37° C. and 5% CO2, the inhibition on cell survival was quantified after 50 μL of CTG was added and the luminescence assay was performed;
6. the compound concentration leading to half maximal inhibitory (IC50) and the compound concentration leading to absolute half maximal inhibitory (Absolute IC50) were measured by a plate reader (M1000, Tecan) and a four-parameter curve fit in Graphpad Prism 7.

[2] = target: CSF-1R (Homo sapiens, UniProt P07333); assay: CSF-1R in vitro biochemical kinase study (ADP-Glo assay); conditions: 500 μM ATP, * = average of multiple tests, read-out: Enzymatic experiment CSF1R IC50
Chain of CSF-1R (P07333 20-972): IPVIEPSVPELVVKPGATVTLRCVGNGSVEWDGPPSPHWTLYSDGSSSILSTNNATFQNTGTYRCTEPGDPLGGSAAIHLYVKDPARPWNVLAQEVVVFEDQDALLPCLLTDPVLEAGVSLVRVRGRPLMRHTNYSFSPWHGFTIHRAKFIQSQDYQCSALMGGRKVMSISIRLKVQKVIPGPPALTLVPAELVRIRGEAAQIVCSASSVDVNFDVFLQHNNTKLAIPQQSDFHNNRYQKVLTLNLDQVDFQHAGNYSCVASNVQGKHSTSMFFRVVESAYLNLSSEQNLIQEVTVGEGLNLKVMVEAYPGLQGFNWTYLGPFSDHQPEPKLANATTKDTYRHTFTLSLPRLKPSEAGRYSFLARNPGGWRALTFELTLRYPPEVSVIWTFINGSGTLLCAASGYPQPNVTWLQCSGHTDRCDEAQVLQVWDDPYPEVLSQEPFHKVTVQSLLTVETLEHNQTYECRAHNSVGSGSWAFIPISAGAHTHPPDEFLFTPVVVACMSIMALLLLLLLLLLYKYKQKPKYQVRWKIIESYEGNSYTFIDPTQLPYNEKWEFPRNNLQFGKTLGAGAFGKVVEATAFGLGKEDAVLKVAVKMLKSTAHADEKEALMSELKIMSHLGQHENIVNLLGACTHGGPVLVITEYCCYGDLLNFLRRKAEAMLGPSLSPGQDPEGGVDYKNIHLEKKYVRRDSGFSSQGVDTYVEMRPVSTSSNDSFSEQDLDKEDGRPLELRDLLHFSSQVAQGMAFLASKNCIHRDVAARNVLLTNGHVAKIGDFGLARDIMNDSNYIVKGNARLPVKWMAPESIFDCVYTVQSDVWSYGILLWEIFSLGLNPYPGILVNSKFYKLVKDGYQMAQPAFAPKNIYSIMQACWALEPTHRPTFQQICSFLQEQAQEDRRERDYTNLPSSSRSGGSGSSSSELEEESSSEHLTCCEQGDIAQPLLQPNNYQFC
Procedure: A. CSF-1R In Vitro Biochemical Kinase Study
In the present invention, the inhibitory activity of compounds against the CSF-1R activity was determined by using CSF-1R ADP-Glo assay. The compound-mediated inhibition effect was achieved by inhibiting the production of ADP from consumption of ATP, and the activities of compounds were evaluated by using the ADP-Glo kit (Promega, cat. No. V9101). The specific experimental process was as follows:
1. The kinase reaction performed in the present invention was carried out in a 384-well plate (Perkinelmer, cat. No. 6007290), 3.95 nM of CSF-1R, 500 μM of ATP, and 0.2 mg/mL of polypeptide (Poly (Glu4, Try1), Sigma, cat. No. P0275) were respectively weighed and added to each well:
2. following reagents were then added to each well to reach the final reaction system: 40 mM Tris, pH 7.5, 20 mM MgCl2, 0.01% Triton X-100, 0.1 mg/mL BSA, 2.5 mM DTT, and 0.1% DMSO;
3. the reaction was conducted at 30° C. for 60 min;
4. then an equal volume of stop solution (ADP-Glo) was added to the kinase reaction system;
5. the mixed solution was incubated at 25° C. for 60 min, and the kinase reaction was then terminated;
6. a two-fold volume of detection reagent was then added to each well;
7. the mixed solution was incubated at 25° C. for 30 min;
8. the compound IC50 value was measured by using a plate reader (Tecan, M1000) and a four-parameter curve was generated in Graphpad Prism.

[3] = system: NCI-H1703 human non-small cell lung squamous carcinoma cells; assay: Cell proliferation (Cell Titer Glo), NCI-H1703 cells (PDGFRA); type: cell-based; conditions: 72 h, 3 days, CTG, * = average of multiple tests, read-out: Cytological experiment PDGFRA IC50
Procedure: D. CSF-1R-Related Cell Proliferation Experiment
Functional effects of compounds on the proliferation of several cell lines were evaluated by Cell Titer Glo (CTG) studies in the present invention, and effects of the compounds on the proliferation of different cells were evaluated to determine the selectivity degree of the compounds. In the experiment, M-07e human cytomegalic leukemia cells (cat. No. CBP60791) from Nanjing Kebai Biotechnology Co., Ltd. were cultured in an incubator under conditions of RPMI1640 (Gibco, cat. No. 11875-119), 20% fetal bovine serum (Gibco, 10099-141), human 10 ng/mL GM-CSF granulocyte macrophage colony-stimulating factors (R&D, cat. No. 215-GM-010), 37° C., and 5% CO2; and Kasumi-1 human acute myeloblastic leukemia cells (cat. No. CBP60524) were cultured in an incubator under conditions of RPMI1640 (Gibco, cat. No. 11875-119), 20% fetal bovine serum (Gibco, 10099-141), 37° C., and 5% CO2: NCI-H1703 human non-small cell lung squamous carcinoma cells (cat. No. CBP60115) were cultured in an incubator under conditions of RPMI1640 (Gibco, cat. No. 11875-119), 10% fetal bovine serum (Gibco, 10099-141), 37° C., and 5% CO2; MV-4-11 human acute monocytic leukemia cells (cat. No. CBP60522) were cultured in an incubator under conditions of IMDM (Invitrogen, cat. No. 12440053), 20% fetal bovine serum (Gibco, 10099-141), 37° C., and 5% CO2. Since ATP is an index for viable cell metabolism, CTG (Promega, #G7573) reagent is a homogeneous detection method for detecting the number of viable cells in the culture by quantifying ATP. Therefore, compound-mediated inhibition for cell proliferation/survival was evaluated by quantifying ATP content in cells, and the specific experimental process was as follows.
II) NCI-H1703 Human Non-Small Cell Lung Squamous Carcinoma Cell
1. The cells were inoculated into a tissue-culture-medium-treated 96-well plate (Costar #3904) with 5000 cells/well/90 μL fresh culture medium, and cultured for 24 hrs;
2. the next day, 10 μL of culture medium containing testing compound with 10-fold of final concentration was added to each well:
3. the dosage effect was evaluated by testing 3-fold serial dilutions of the compound, which started from 18 μM;
4. after the cells were incubated for 3 days at 37° C. and 5% CO2, the inhibition on cell survival was quantified after 50 μL of CTG was added and the luminescence assay was performed:
5. the compound concentration leading to half maximal inhibitory (IC50) and the compound concentration leading to absolute half maximal inhibitory (Absolute IC50) were measured by a plate reader (M1000, Tecan) and a four-parameter curve fit in Graphpad Prism 7.

[4] = read-out: Cytological experiment CSF1R IC50
[5] = absolute half maximal inhibition, read-out: Cytological experiment CSF-1R Absolute IC50

| SMILES | IC50 [1, 4] [nM] | IC50 [1, 5] [nM] | IC50 [2] [nM] | IC50 [3] [nM] |
| --- | --- | --- | --- | --- |
| Cc1nc(-c2cnc3n(c2=O)CCCN3C)ccc1Oc1ccnc(-c2cnn(C)c2)c1 [Example 1, 9-methyl-3-(6-methyl-5-((2-(1-methyl-1H-pyrazol-4-yl)pyridin-4-yl)oxy)pyridin-2-yl)-6,7,8,9-tetrahydro-4H-pyrimido[1,2-a]pyrimidin-4-one] | 101 | 95.6 | 73.7 | > 18000 |
| CCN1CCCn2c1ncc(-c1ccc(Oc3ccnc(-c4cnn(C)c4)c3)c(C)n1)c2=O [Example 4] | 38 | 20.2 | 90.7 | > 2000 |
